Patent publication US8901118B2, “Compounds and methods for kinase modulation, and indications therefor” (Plexxikon Inc., priority 2010, dated 2014)

What was measured:
CYP1A2 = target: T1, CYP1A2 (Homo sapiens, UniProt P05177); assay: CYP1A2 inhibition (fluorescent substrate CEC); format: in vitro ADME; settings: read-out: Cyp IC50 1A2
T1 sequence (P05177 1-516): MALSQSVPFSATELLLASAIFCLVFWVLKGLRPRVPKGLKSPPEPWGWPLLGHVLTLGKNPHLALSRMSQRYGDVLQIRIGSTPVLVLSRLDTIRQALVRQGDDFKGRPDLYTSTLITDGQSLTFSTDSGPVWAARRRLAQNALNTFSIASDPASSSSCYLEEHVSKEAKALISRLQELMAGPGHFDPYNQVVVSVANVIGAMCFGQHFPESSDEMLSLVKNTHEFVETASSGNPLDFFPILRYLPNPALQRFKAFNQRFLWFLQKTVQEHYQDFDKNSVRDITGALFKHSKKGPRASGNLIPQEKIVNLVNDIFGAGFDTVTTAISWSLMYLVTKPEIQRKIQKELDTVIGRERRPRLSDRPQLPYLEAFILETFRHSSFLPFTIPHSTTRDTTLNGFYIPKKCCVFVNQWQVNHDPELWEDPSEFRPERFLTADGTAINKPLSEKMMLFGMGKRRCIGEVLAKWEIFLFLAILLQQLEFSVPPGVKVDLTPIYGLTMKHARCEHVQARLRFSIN
Summary of the method: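 IC50 derives from metabolite fluorescence against compound concentration, read at excitation 409 nm and emission 460 nm for CYP1A2/2C19 or 530 nm for CYP2C9/2D6. Incubations ran at 37° C for 15 min (1A2), 45 min (2C9) or 30 min (2C19, 2D6), after serial dilution into NADPH cofactor mix and 10 min preincubation.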

CYP3A4(BFC) = CYP3A4(BFC) (Homo sapiens, UniProt P08684); assay: CYP3A4(BFC) inhibition; format: in vitro ADME; settings: CYP3A4, substrate BFC; read-out: Cyp IC50 3A4(BFC)
Summary of the method: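 This fluorescence assay tracks how test compounds reduce CYP3A4 turnover of BFC, with enzyme and substrate from BD Biosciences. A 10-point 1:1 dilution series in cofactor mix (1.3% NADPH Regeneration Solution A, 1.04% Solution B, 5% acetonitrile, 0.05% DMSO) was dispensed at 10 μL into 384 well plates, preincubated 10 minutes at 37° C, then incubated 30 min and read on a Tecan Safire 2.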

BCR-NTRK2 BaF3 cells = target: T2, BCR-NTRK2 BaF3 cells (Homo sapiens, UniProt Q16620); assay: BaF3 BCR-NTRK2 cell proliferation assay (ATPlite); format: cell-based; settings: read-out: Inhibition of Cell Proliferation IC50, BCR/BaF3 TrkB
T2 construct: fused on or other part: P11274 (Breakpoint cluster region protein)
Summary of the method: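 Cells are plated overnight: BaF3 at 10,000/well in G418 medium without WEHI/IL-3, MV-4-11 at 25,000/well in IMDM with 10% FBS. An 8-point 1:3 compound titration (10 μM top) is then added, and plates are incubated 3 days at 37 °C before ATPlite readout and IC50 determination.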

T2 sequence (Q16620 538-807): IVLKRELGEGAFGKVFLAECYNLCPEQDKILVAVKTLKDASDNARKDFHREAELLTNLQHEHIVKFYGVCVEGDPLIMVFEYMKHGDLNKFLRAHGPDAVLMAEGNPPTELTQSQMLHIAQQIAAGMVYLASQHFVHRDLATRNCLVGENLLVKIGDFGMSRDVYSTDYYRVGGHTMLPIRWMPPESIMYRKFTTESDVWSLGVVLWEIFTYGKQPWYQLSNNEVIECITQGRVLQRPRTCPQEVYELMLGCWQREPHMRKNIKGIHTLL
Chain of CYP3A4(BFC) (P08684 whole entry): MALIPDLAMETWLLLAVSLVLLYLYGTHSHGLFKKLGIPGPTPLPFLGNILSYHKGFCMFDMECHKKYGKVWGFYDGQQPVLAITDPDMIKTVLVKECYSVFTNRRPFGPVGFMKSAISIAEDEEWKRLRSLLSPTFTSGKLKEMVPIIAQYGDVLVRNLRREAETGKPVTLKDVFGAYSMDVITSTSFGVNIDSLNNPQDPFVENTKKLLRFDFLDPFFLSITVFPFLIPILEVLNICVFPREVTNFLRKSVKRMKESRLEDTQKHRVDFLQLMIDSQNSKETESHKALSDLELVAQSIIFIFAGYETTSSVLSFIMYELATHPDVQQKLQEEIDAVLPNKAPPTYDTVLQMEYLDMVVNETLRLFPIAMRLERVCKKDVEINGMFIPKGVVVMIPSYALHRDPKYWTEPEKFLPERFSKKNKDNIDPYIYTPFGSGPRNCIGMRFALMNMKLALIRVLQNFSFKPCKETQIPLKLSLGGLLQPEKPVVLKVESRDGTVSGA

Structure (SMILES): COc1ncnc2[nH]cc(Cc3ccc(Nc4ccc(C)nc4)nc3F)c12 [Compound P-4010, [6-Fluoro-5-(4-methoxy-7H-pyrrolo[2,3-d]pyrimidin-5-ylmethyl)-pyridin-2-yl]-(6-methyl-pyridin-3-yl)-amine]
- IC50 (CYP1A2): > 10 µM
- IC50 (CYP3A4(BFC)): > 10 µM
- IC50 (BCR-NTRK2 BaF3 cells): < 100 nM

Structure (SMILES): CCn1cc(Nc2ccc(Cc3c[nH]c4ncnc(OC)c34)c(F)n2)cn1 [Compound P-4011, (1-Ethyl-1H-pyrazol-4-yl)-[6-fluoro-5-(4-methoxy-7H-pyrrolo[2,3-d]pyrimidin-5-ylmethyl)-pyridin-2-yl]-amine]
- IC50 (CYP1A2): > 10 µM
- IC50 (CYP3A4(BFC)): 5 to 10 µM
- IC50 (BCR-NTRK2 BaF3 cells): < 1000 nM

Structure (SMILES): CCOc1ncnc2[nH]cc(Cc3ccc(Nc4cnn(CC)c4)nc3F)c12 [Compound P-4012, [5-(4-Ethoxy-7H-pyrrolo[2,3-d]pyrimidin-5-ylmethyl)-6-fluoro-pyridin-2-yl]-(1-ethyl-1H-pyrazol-4-yl)-amine]
- IC50 (CYP1A2): > 10 µM
- IC50 (CYP3A4(BFC)): > 10 µM
- IC50 (BCR-NTRK2 BaF3 cells): < 100 nM

Structure (SMILES): CCn1cc(Nc2ccc(Cc3c[nH]c4ncnc(C)c34)c(F)n2)cn1 [Compound P-4013, (1-Ethyl-1H-pyrazol-4-yl)-[6-fluoro-5-(4-methyl-7H-pyrrolo[2,3-d]pyrimidin-5-ylmethyl)-pyridin-2-yl]-amine]
- IC50 (CYP1A2): > 10 µM
- IC50 (CYP3A4(BFC)): > 10 µM
- IC50 (BCR-NTRK2 BaF3 cells): < 1000 nM

Structure (SMILES): CCn1cc(Nc2ccc(Cc3c[nH]c4ncnc(OCCOC)c34)c(F)n2)cn1 [Compound P-4014, (1-Ethyl-1H-pyrazol-4-yl)-{6-fluoro-5-[4-(2-methoxy-ethoxy)-7H-pyrrolo[2,3-d]pyrimidin-5-ylmethyl]-pyridin-2-yl}-amine]
- IC50 (CYP1A2): > 10 µM
- IC50 (CYP3A4(BFC)): 5 to 10 µM
- IC50 (BCR-NTRK2 BaF3 cells): < 1000 nM

Structure (SMILES): COCCOc1ncnc2[nH]cc(Cc3ccc(Nc4ccc(C)nc4)nc3F)c12 [Compound P-4015, {6-Fluoro-5-[4-(2-methoxy-ethoxy)-7H-pyrrolo[2,3-d]pyrimidin-5-ylmethyl]-pyridin-2-yl}-(6-methyl-pyridin-3-yl)-amine]
- IC50 (CYP1A2): > 10 µM
- IC50 (CYP3A4(BFC)): > 10 µM
- IC50 (BCR-NTRK2 BaF3 cells): < 1000 nM

Structure (SMILES): CCc1ccc(Nc2ccc(Cc3c[nH]c4ncnc(OCCOC)c34)c(F)n2)cn1 [Compound P-4016, (6-Ethyl-pyridin-3-yl)-{6-fluoro-5-[4-(2-methoxy-ethoxy)-7H-pyrrolo[2,3-d]pyrimidin-5-ylmethyl]-pyridin-2-yl}-amine]
- IC50 (CYP1A2): > 10 µM
- IC50 (CYP3A4(BFC)): > 10 µM
- IC50 (BCR-NTRK2 BaF3 cells): < 10 nM

Structure (SMILES): CCOc1ncnc2[nH]cc(Cc3ccc(Nc4ccc(C)nc4)nc3F)c12 [Compound P-4017, [5-(4-Ethoxy-7H-pyrrolo[2,3-d]pyrimidin-5-ylmethyl)-6-fluoro-pyridin-2-yl]-(6-methyl-pyridin-3-yl)-amine]
- IC50 (CYP1A2): > 10 µM
- IC50 (CYP3A4(BFC)): > 10 µM
- IC50 (BCR-NTRK2 BaF3 cells): < 1000 nM

Structure (SMILES): CCOc1ncnc2[nH]cc(Cc3ccc(Nc4ccc(OC)nc4)nc3F)c12 [Compound P-4018, [5-(4-Ethoxy-7H-pyrrolo[2,3-d]pyrimidin-5-ylmethyl)-6-fluoro-pyridin-2-yl]-(6-methoxy-pyridin-3-yl)-amine]
- IC50 (CYP1A2): > 10 µM
- IC50 (CYP3A4(BFC)): 5 to 10 µM
- IC50 (BCR-NTRK2 BaF3 cells): < 100 nM

Structure (SMILES): COCCOc1ncnc2[nH]cc(Cc3ccc(Nc4ccc(OC)nc4)nc3F)c12 [Compound P-4019, {6-Fluoro-5-[4-(2-methoxy-ethoxy)-7H-pyrrolo[2,3-d]pyrimidin-5-ylmethyl]-pyridin-2-yl}-(6-methoxy-pyridin-3-yl)-amine]
- IC50 (CYP1A2): > 10 µM
- IC50 (CYP3A4(BFC)): 5 to 10 µM
- IC50 (BCR-NTRK2 BaF3 cells): < 100 nM

Structure (SMILES): COc1ccc(Nc2ccc(C(=O)c3c[nH]c4ncnc(C5CC5)c34)c(F)n2)cn1 [Compound P-4022, (4-cyclopropyl-7H-pyrrolo[2,3-d]pyrimidin-5-yl)-[2-fluoro-6-(6-methoxy-pyridin-3-ylamino)-pyridin-3-yl]-methanone]
- IC50 (CYP1A2): > 10 µM
- IC50 (CYP3A4(BFC)): 5 to 10 µM
- IC50 (BCR-NTRK2 BaF3 cells): < 10 nM

Structure (SMILES): COc1ccc(Nc2ccc(Cc3c[nH]c4ncnc(C5CC5)c34)c(F)n2)cn1 [Compound P-4023, [5-(4-cyclopropyl-7H-pyrrolo[2,3-d]pyrimidin-5-ylmethyl)-6-fluoro-pyridin-2-yl]-(6-methoxy-pyridin-3-yl)-amine]
- IC50 (CYP1A2): > 10 µM
- IC50 (CYP3A4(BFC)): < 5 µM
- IC50 (BCR-NTRK2 BaF3 cells): < 100 nM

Structure (SMILES): CCOc1ccc(Nc2ccc(C(=O)c3c[nH]c4ncnc(OC)c34)c(F)n2)cn1 [Compound P-4024, [6-(6-Ethoxy-pyridin-3-ylamino)-2-fluoro-pyridin-3-yl]-(4-methoxy-7H-pyrrolo[2,3-d]pyrimidin-5-yl)-methanone]
- IC50 (CYP1A2): > 10 µM
- IC50 (CYP3A4(BFC)): < 5 µM
- IC50 (BCR-NTRK2 BaF3 cells): < 100 nM

Structure (SMILES): CCOc1ncnc2[nH]cc(C(=O)c3ccc(Nc4ccc(OC)nc4)nc3F)c12 [Compound P-4025, (4-Ethoxy-7H-pyrrolo[2,3-d]pyrimidin-5-yl)-[2-fluoro-6-(6-methoxy-pyridin-3-ylamino)-pyridin-3-yl]-methanone]
- IC50 (CYP1A2): > 10 µM
- IC50 (CYP3A4(BFC)): < 5 µM
- IC50 (BCR-NTRK2 BaF3 cells): < 100 nM

Structure (SMILES): CCc1ccc(Nc2ccc(Cc3c[nH]c4ncnc(C5CC5)c34)c(F)n2)cn1 [Compound P-4028, [5-(4-Cyclopropyl-7H-pyrrolo[2,3-d]pyrimidin-5-ylmethyl)-6-fluoro-pyridin-2-yl]-(6-ethyl-pyridin-3-yl)-amine]
- IC50 (CYP1A2): > 10 µM
- IC50 (CYP3A4(BFC)): > 10 µM
- IC50 (BCR-NTRK2 BaF3 cells): < 10 nM

Structure (SMILES): CCc1ccc(Nc2ccc(C(=O)c3c[nH]c4ncnc(C5CC5)c34)c(F)n2)cn1 [Compound P-4029, (4-Cyclopropyl-7H-pyrrolo[2,3-d]pyrimidin-5-yl)-[6-(6-ethyl-pyridin-3-ylamino)-2-fluoro-pyridin-3-yl]-methanone]
- IC50 (CYP1A2): > 10 µM
- IC50 (CYP3A4(BFC)): > 10 µM
- IC50 (BCR-NTRK2 BaF3 cells): < 10 nM

Structure (SMILES): Cc1ccc(Nc2ccc(Cc3c[nH]c4ncnc(C5CC5)c34)c(F)n2)cn1 [Compound P-4030, [5-(4-Cyclopropyl-7H-pyrrolo[2,3-d]pyrimidin-5-ylmethyl)-6-fluoro-pyridin-2-yl]-(6-methyl-pyridin-3-yl)-amine]
- IC50 (CYP1A2): > 10 µM
- IC50 (CYP3A4(BFC)): > 10 µM
- IC50 (BCR-NTRK2 BaF3 cells): < 100 nM

Structure (SMILES): Cc1ccc(Nc2ccc(C(=O)c3c[nH]c4ncnc(C5CC5)c34)c(F)n2)cn1 [Compound P-4031, (4-Cyclopropyl-7H-pyrrolo[2,3-d]pyrimidin-5-yl)-[2-fluoro-6-(6-methyl-pyridin-3-ylamino)-pyridin-3-yl]-methanone]
- IC50 (CYP1A2): > 10 µM
- IC50 (CYP3A4(BFC)): > 10 µM
- IC50 (BCR-NTRK2 BaF3 cells): < 10 nM

Structure (SMILES): CCn1cc(Nc2ccc(Cc3c[nH]c4ncnc(C5CC5)c34)c(F)n2)cn1 [Compound P-4036, [5-(4-Cyclopropyl-7H-pyrrolo[2,3-d]pyrimidin-5-ylmethyl)-6-fluoro-pyridin-2-yl]-(1-ethyl-1H-pyrazol-4-yl)-amine]
- IC50 (CYP1A2): 5 to 10 µM
- IC50 (CYP3A4(BFC)): 5 to 10 µM
- IC50 (BCR-NTRK2 BaF3 cells): < 100 nM

Structure (SMILES): Fc1nc(NC2CCC(F)(F)CC2)ccc1Cc1c[nH]c2ncnc(NCC(F)(F)F)c12 [Compound P-4128, 5-[[6-[(4,4-difluorocyclohexyl)amino]-2-fluoro-3-pyridyl]methyl]-N-(2,2,2-trifluoroethyl)-7H-pyrrolo[2,3-d]pyrimidin-4-amine]
- IC50 (CYP1A2): > 10 µM
- IC50 (CYP3A4(BFC)): > 10 µM
- IC50 (BCR-NTRK2 BaF3 cells): < 100 nM

Structure (SMILES): Fc1nc(NC2CCC(F)(F)CC2)ccc1Cc1c[nH]c2ncnc(NC3CC3)c12 [Compound P-4129, N-cyclopropyl-5-[[6-[(4,4-difluorocyclohexyl)amino]-2-fluoro-3-pyridyl]methyl]-7H-pyrrolo[2,3-d]pyrimidin-4-amine]
- IC50 (CYP1A2): > 10 µM
- IC50 (CYP3A4(BFC)): < 5 µM
- IC50 (BCR-NTRK2 BaF3 cells): < 100 nM

Structure (SMILES): Fc1nc(Nc2ccc(C3CC3)nc2)ccc1Cc1c[nH]c2ncnc(NCC(F)(F)F)c12 [Compound P-4130, 5-[[6-[(6-cyclopropyl-3-pyridyl)amino]-2-fluoro-3-pyridyl]methyl]-N-(2,2,2-trifluoroethyl)-7H-pyrrolo[2,3-d]pyrimidin-4-amine]
- IC50 (CYP1A2): > 10 µM
- IC50 (CYP3A4(BFC)): < 5 µM
- IC50 (BCR-NTRK2 BaF3 cells): < 10 nM
